Experimental data reported in patent US11267825B2 (AICURIS GMBH & CO. KG, priority 2017, dated 2022).
Like-named read-outs stand apart in the source and are kept apart here.

Columns and labels:
[1] = test system: HBV; test: Determination of HBV DNA from the supernatants of HepAD38 cells (anti-HBV activity); assay type: cell-based, hepatitis B virus; settings: HBV DNA in HepAD38 supernatant at day 6, read-out: Cell Activity (EC50)
How it was run: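 HepAD38 cells (60,000/well) were treated with half-log compound dilutions in tetracycline-free medium to induce HBV production. On day 6, HBV DNA was purified from filtered supernatant and quantified by real-time PCR against plasmid standards. EC50 values came from non-linear regression of relative copy numbers, typically from three experiments in triplicate.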

[2] = test system: HepAD38 cells; test: Cell viability assay (AlamarBlue) in HepAD38 cells; settings: HepAD38 cells in the presence of 0.3 μg/ml tetracycline, six days incubation
[3] = molecular target: HBV core protein (UniProt P03146); assay type: biochemical; settings: read-out: Assembly Activity (IC50); BODIPY-FL labelled core protein, assembly started with NaCl, read after 6 min
How it was run: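 Fluorescence-quenching assembly assay using E. coli-expressed core protein 1–149 plus Cys150, labelled with BODIPY-FL maleimide, at 1.0–2.0 μM in 50 mM HEPES pH 7.5, 0.5% DMSO. Assembly started with NaCl to […]; fluorescence (ex 477/em 525 nm) read after 6 min. EC50 by non-linear regression, 8-point 0.5-log dilutions.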

HBV core protein, sequence (P03146 whole entry, looked up): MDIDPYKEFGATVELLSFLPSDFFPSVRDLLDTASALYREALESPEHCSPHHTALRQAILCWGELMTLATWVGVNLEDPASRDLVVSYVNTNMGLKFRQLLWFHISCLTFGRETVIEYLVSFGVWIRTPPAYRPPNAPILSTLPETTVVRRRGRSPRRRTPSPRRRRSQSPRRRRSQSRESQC

Row | Structure (SMILES) | EC50 [1] [µM] | CC50 [2] [µM] | EC50 ([1]; Hepatitis B virus, 144 h) [µM] | IC50 [3] [µM]
1 | O=C(Nc1nc2c(s1)CN(C(=O)c1cc3ccccc3[nH]1)CC2)C1[C@H]2COC[C@@H]12 (stereo partly drawn) [Example 361, (1R,5S,6S)—N-[5-(1H-indole-2-carbonyl)-4H,5H,6H,7H-[1,3]thiazolo[5,4-c]pyridin-2-yl]-3-oxabicyclo[3.1.0]hexane-6-carboxamide] | < 1 | > 10 |  | 
2 | CCc1cc(F)cc2[nH]c(C(=O)N3CCc4nc(N[C@H]5C[C@H](O)C5)sc4C3)cc12 [Example 376, (1r,3r)-3-{[5-(4-ethyl-6-fluoro-1H-indole-2-carbonyl)-4H,5H,6H,7H-[1,3]thiazolo[5,4-c]pyridin-2-yl]amino}cyclobutan-1-ol] | < 1 | > 10 |  | 
3 | O=C(c1cc2c(F)c(F)ccc2[nH]1)N1CCc2nc(N[C@H]3C[C@H](O)C3)sc2C1 [Example 377, (1r,3r)-3-{[5-(4,5-difluoro-1H-indole-2-carbonyl)-4H,5H,6H,7H-[1,3]thiazolo[5,4-c]pyridin-2-yl]amino}cyclobutan-1-ol] | < 1 | > 10 |  | 
4 | O=C(c1cc2c(F)cc(F)cc2[nH]1)N1CCc2nc(N[C@H]3C[C@H](O)C3)sc2C1 [Example 378, (1r,3r)-3-{[5-(4,6-difluoro-1H-indole-2-carbonyl)-4H,5H,6H,7H-[1,3]thiazolo[5,4-c]pyridin-2-yl]amino}cyclobutan-1-ol] | < 1 | > 10 |  | 
5 | O=C(c1cc2ccccc2[nH]1)N1CCc2nc(N[C@H]3CC[C@@H](O)C3)sc2C1 [Example 396, (1R,3S)-3-{[5-(1H-indole-2-carbonyl)-4H,5H,6H,7H-[1,3]thiazolo[5,4-c]pyridin-2-yl]amino}cyclopentan-1-ol] |  |  | < 1 | < 5
6 | CC(F)(F)c1cccc2[nH]c(C(=O)N3CCc4nc(NC(=O)C5CCOCC5)sc4C3)cc12 [Example 399, N-{5-[4-(1,1-difluoroethyl)-1H-indole-2-carbonyl]-4H,5H,6H,7H-[1,3]thiazolo[5,4-c]pyridin-2-yl}oxane-4-carboxamide] |  |  | 1 to 10 | < 5
7 | O=C(Nc1nc2c(s1)CN(C(=O)c1cc3c(C(F)F)cccc3[nH]1)CC2)C1CCOCC1 [Example 400, N-{5-[4-(difluoromethyl)-1H-indole-2-carbonyl]-4H,5H,6H,7H-[1,3]thiazolo[5,4-c]pyridin-2-yl}oxane-4-carboxamide] |  |  | < 1 | < 5
8 | CC(F)(F)c1cc(F)cc2[nH]c(C(=O)N3CCc4nc(NC(=O)C5CCOCC5)sc4C3)cc12 [Example 401, N-{5-[4-(1,1-difluoroethyl)-6-fluoro-1H-indole-2-carbonyl]-4H,5H,6H,7H-[1,3]thiazolo[5,4-c]pyridin-2-yl}oxane-4-carboxamide] |  |  | < 1 | < 5
9 | O=C(Nc1nc2c(s1)CN(C(=O)c1cc3c(C(F)F)cc(F)cc3[nH]1)CC2)C1CCOCC1 [Example 402, N-{5-[4-(difluoromethyl)-6-fluoro-1H-indole-2-carbonyl]-4H,5H,6H,7H-[1,3]thiazolo[5,4-c]pyridin-2-yl}oxane-4-carboxamide] |  |  | < 1 | < 5
10 | CCc1cc(F)cc2[nH]c(C(=O)N3CCc4nc(NC(=O)C5CCOCC5)sc4C3)cc12 [Example 403, N-[5-(4-ethyl-6-fluoro-1H-indole-2-carbonyl)-4H,5H,6H,7H-[1,3]thiazolo[5,4-c]pyridin-2-yl]oxane-4-carboxamide] |  |  | < 1 | < 5
11 | O=C1CCC(CNc2nc3c(s2)CN(C(=O)c2cc4ccccc4[nH]2)CC3)N1 (stereo not shown) [Example 404, 5-({[5-(1H-indole-2-carbonyl)-4H,5H,6H,7H-[1,3]thiazolo[5,4-c]pyridin-2-yl]amino}methyl)pyrrolidin-2-one] |  |  | < 1 | < 5
12 | O=C(c1cc2ccccc2[nH]1)N1CCc2nc(NCC3(O)CC3)sc2C1 [Example 405, 1-({[5-(1H-indole-2-carbonyl)-4H,5H,6H,7H-[1,3]thiazolo[5,4-c]pyridin-2-yl]amino}methyl)cyclopropan-1-ol] |  |  | < 1 | < 5
13 | Nc1nc2c(s1)CN(C(=O)c1cc3ccc(Cl)c(F)c3[nH]1)CC2 [Example 407, 5-(6-chloro-7-fluoro-1H-indole-2-carbonyl)-4H,5H,6H,7H-[1,3]thiazolo[5,4-c]pyridin-2-amine] |  |  | < 1 | < 5
14 | O=C(c1cc2c(C(F)F)cccc2[nH]1)N1CCc2nc(NCC3(O)CCC3)sc2C1 [Example 408, 1-[({5-[4-(difluoromethyl)-1H-indole-2-carbonyl]-4H,5H,6H,7H-[1,3]thiazolo[5,4-c]pyridin-2-yl}amino)methyl]cyclobutan-1-ol] |  |  | < 1 | < 5
15 | CN1CCC(C(=O)Nc2nc3c(s2)CN(C(=O)c2cc4ccccc4[nH]2)CC3)CC1 [Example 409, N-[5-(1H-indole-2-carbonyl)-4H,5H,6H,7H-[1,3]thiazolo[5,4-c]pyridin-2-yl]-1-methylpiperidine-4-carboxamide] |  |  | < 1 | < 5
16 | CC(=O)N1CCC(C(=O)Nc2nc3c(s2)CN(C(=O)c2cc4ccccc4[nH]2)CC3)CC1 [Example 410, 1-acetyl-N-[5-(1H-indole-2-carbonyl)-4H,5H,6H,7H-[1,3]thiazolo[5,4-c]pyridin-2-yl]piperidine-4-carboxamide] |  |  | < 1 | < 5
17 | O=C(Nc1nc2c(s1)CN(C(=O)c1cc3ccccc3[nH]1)CC2)C1CCC(O)CC1 (stereo not shown) [Example 411, 4-hydroxy-N-[5-(1H-indole-2-carbonyl)-4H,5H,6H,7H-[1,3]thiazolo[5,4-c]pyridin-2-yl]cyclohexane-1-carboxamide] |  |  | < 1 | < 5
18 | O=C1CC(C(=O)Nc2nc3c(s2)CN(C(=O)c2cc4ccccc4[nH]2)CC3)CCN1 (stereo not shown) [Example 412, N-[5-(1H-indole-2-carbonyl)-4H,5H,6H,7H-[1,3]thiazolo[5,4-c]pyridin-2-yl]-2-oxopiperidine-4-carboxamide] |  |  | < 1 | < 5
19 | CC(C)OC1(CNc2nc3c(s2)CN(C(=O)c2cc4ccccc4[nH]2)CC3)CCC1 [Example 413, 5-(1H-indole-2-carbonyl)-N-{[1-(propan-2-yloxy)cyclobutyl]methyl}-4H,5H,6H,7H-[1,3]thiazolo[5,4-c]pyridin-2-amine] |  |  | < 1 | < 5
20 | COC1(CNc2nc3c(s2)CN(C(=O)c2cc4ccccc4[nH]2)CC3)CCC1 [Example 414, 5-(1H-indole-2-carbonyl)-N-[(1-methoxycyclobutyl)methyl]-4H,5H,6H,7H-[1,3]thiazolo[5,4-c]pyridin-2-amine] |  |  | < 1 | < 5
21 | O=C(c1cc2ccccc2[nH]1)N1CCc2nc(NC3CC(F)(F)C3)sc2C1 [Example 416, N-(3,3-difluorocyclobutyl)-5-(1H-indole-2-carbonyl)-4H,5H,6H,7H-[1,3]thiazolo[5,4-c]pyridin-2-amine] |  |  | < 1 | 5 to 10
22 | CCNC(=O)C1(CNc2nc3c(s2)CN(C(=O)c2cc4ccccc4[nH]2)CC3)CCC1 [Example 417, N-ethyl-1-({[5-(1H-indole-2-carbonyl)-4H,5H,6H,7H-[1,3]thiazolo[5,4-c]pyridin-2-yl]amino}methyl)cyclobutane-1-carboxamide] |  |  | < 1 | < 5
23 | O=C(c1cc2ccccc2[nH]1)N1CCc2nc(NCC3CCC3)sc2C1 [Example 418, N-(cyclobutylmethyl)-5-(1H-indole-2-carbonyl)-4H,5H,6H,7H-[1,3]thiazolo[5,4-c]pyridin-2-amine] |  |  | < 1 | 5 to 10
24 | O=C(c1cc2ccccc2[nH]1)N1CCc2nc(NC3(c4ccccc4)CC3)sc2C1 [Example 419, 5-(1H-indole-2-carbonyl)-N-(1-phenylcyclopropyl)-4H,5H,6H,7H-[1,3]thiazolo[5,4-c]pyridin-2-amine] |  |  | < 1 | 5 to 10
25 | CNC(=O)C1(CNc2nc3c(s2)CN(C(=O)c2cc4ccccc4[nH]2)CC3)CCC1 [Example 428, 1-({[5-(1H-indole-2-carbonyl)-4H,5H,6H,7H-[1,3]thiazolo[5,4-c]pyridin-2-yl]amino}methyl)-N-methylcyclobutane-1-carboxamide] |  |  | < 1 | < 5
26 | O=C(c1cc2ccccc2[nH]1)N1CCc2nc(NC3CCC3)sc2C1 [Example 429, N-cyclobutyl-5-(1H-indole-2-carbonyl)-4H,5H,6H,7H-[1,3]thiazolo[5,4-c]pyridin-2-amine] |  |  | < 1 | < 5
27 | O=C(c1cc2ccccc2[nH]1)N1CCc2nc(NC3(c4c[nH]nn4)CC(F)(F)C3)sc2C1 [Example 430, N-[3,3-difluoro-1-(1H-1,2,3-triazol-4-yl)cyclobutyl]-5-(1H-indole-2-carbonyl)-4H,5H,6H,7H-[1,3]thiazolo[5,4-c]pyridin-2-amine] |  |  | < 1 | < 5
28 | O=C(c1cc2ccccc2[nH]1)N1CCc2nc(NCC3(c4ccccn4)CCC3)sc2C1 [Example 432, 5-(1H-indole-2-carbonyl)-N-{[1-(pyridin-2-yl)cyclobutyl]methyl}-4H,5H,6H,7H-[1,3]thiazolo[5,4-c]pyridin-2-amine] |  |  | < 1 | < 5
29 | CN(C)C1(CNc2nc3c(s2)CN(C(=O)c2cc4ccccc4[nH]2)CC3)CCC1 [Example 433, N-{[1-(dimethylamino)cyclobutyl]methyl}-5-(1H-indole-2-carbonyl)-4H,5H,6H,7H-[1,3]thiazolo[5,4-c]pyridin-2-amine] |  |  | < 1 | < 5
